Laboratory results as given in ChEMBL document CHEMBL1146356, “Lactotriaose-containing carbosilane dendrimers: syntheses and lectin-binding activities” (Bioorg Med Chem, 2007).

Assays:
Triticum aestivum [1] = assay: Binding affinity to wheat germ agglutinin
Triticum aestivum [2] = assay: Binding affinity to wheat germ agglutinin relative to Monovalent

Compound: CC(=O)N[C@H]1[C@H](O[C@H]2[C@@H](O)[C@@H](CO)O[C@@H](O[C@@H]3[C@@H](O)[C@H](O)C(OCCCCCSCCC[Si](CCCSCCCCCOC4O[C@@H](CO)[C@H](O[C@@H]5O[C@H](CO)[C@H](O)[C@H](O[C@@H]6O[C@H](CO)[C@@H](O)[C@H](O)[C@H]6NC(C)=O)[C@H]5O)[C@@H](O)[C@@H]4O)(CCCSCCCCCOC4O[C@@H](CO)[C@H](O[C@@H]5O[C@H](CO)[C@H](O)[C@H](O[C@@H]6O[C@H](CO)[C@@H](O)[C@H](O)[C@H]6NC(C)=O)[C@H]5O)[C@@H](O)[C@@H]4O)CCC[Si](C)(C)CCC[Si](CCCSCCCCCOC4O[C@@H](CO)[C@H](O[C@@H]5O[C@H](CO)[C@H](O)[C@H](O[C@@H]6O[C@H](CO)[C@@H](O)[C@H](O)[C@H]6NC(C)=O)[C@H]5O)[C@@H](O)[C@@H]4O)(CCCSCCCCCOC4O[C@@H](CO)[C@H](O[C@@H]5O[C@H](CO)[C@H](O)[C@H](O[C@@H]6O[C@H](CO)[C@@H](O)[C@H](O)[C@H]6NC(C)=O)[C@H]5O)[C@@H](O)[C@@H]4O)CCCSCCCCCOC4O[C@@H](CO)[C@H](O[C@@H]5O[C@H](CO)[C@H](O)[C@H](O[C@@H]6O[C@H](CO)[C@@H](O)[C@H](O)[C@H]6NC(C)=O)[C@H]5O)[C@@H](O)[C@@H]4O)O[C@H]3CO)[C@@H]2O)O[C@H](CO)[C@@H](O)[C@@H]1O (stereo not given in full)
- Ka (Triticum aestivum [1]): 2.8 10^6/M
- Activity (Triticum aestivum [2]): 2500

Compound: CC(=O)N[C@H]1[C@H](O[C@H]2[C@@H](O)[C@@H](CO)O[C@@H](O[C@@H]3[C@@H](O)[C@H](O)C(OCCCCCSCCC[Si](CCCSCCCCCOC4O[C@@H](CO)[C@H](O[C@@H]5O[C@H](CO)[C@H](O)[C@H](O[C@@H]6O[C@H](CO)[C@@H](O)[C@H](O)[C@H]6NC(C)=O)[C@H]5O)[C@@H](O)[C@@H]4O)(CCCSCCCCCOC4O[C@@H](CO)[C@H](O[C@@H]5O[C@H](CO)[C@H](O)[C@H](O[C@@H]6O[C@H](CO)[C@@H](O)[C@H](O)[C@H]6NC(C)=O)[C@H]5O)[C@@H](O)[C@@H]4O)CCC[Si](CCCSCCCCCOC4O[C@@H](CO)[C@H](O[C@@H]5O[C@H](CO)[C@H](O)[C@H](O[C@@H]6O[C@H](CO)[C@@H](O)[C@H](O)[C@H]6NC(C)=O)[C@H]5O)[C@@H](O)[C@@H]4O)(CCCSCCCCCOC4O[C@@H](CO)[C@H](O[C@@H]5O[C@H](CO)[C@H](O)[C@H](O[C@@H]6O[C@H](CO)[C@@H](O)[C@H](O)[C@H]6NC(C)=O)[C@H]5O)[C@@H](O)[C@@H]4O)CCC[Si](CCSCCCCCOC4O[C@@H](CO)[C@H](O[C@@H]5O[C@H](CO)[C@H](O)[C@H](O[C@@H]6O[C@H](CO)[C@@H](O)[C@H](O)[C@H]6NC(C)=O)[C@H]5O)[C@@H](O)[C@@H]4O)(CCSCCCCCOC4O[C@@H](CO)[C@H](O[C@@H]5O[C@H](CO)[C@H](O)[C@H](O[C@@H]6O[C@H](CO)[C@@H](O)[C@H](O)[C@H]6NC(C)=O)[C@H]5O)[C@@H](O)[C@@H]4O)CCSCCCCCOC4O[C@@H](CO)[C@H](O[C@@H]5O[C@H](CO)[C@H](O)[C@H](O[C@@H]6O[C@H](CO)[C@@H](O)[C@H](O)[C@H]6NC(C)=O)[C@H]5O)[C@@H](O)[C@@H]4O)O[C@H]3CO)[C@@H]2O)O[C@H](CO)[C@@H](O)[C@@H]1O (stereo not given in full)
- Ka (Triticum aestivum [1]): 1.3 10^6/M
- Activity (Triticum aestivum [2]): 1200

Compound: CC(=O)N[C@H]1[C@H](O[C@H]2[C@@H](O)[C@@H](CO)O[C@@H](O[C@@H]3[C@@H](O)[C@H](O)C(O)O[C@H]3CO)[C@@H]2O)O[C@H](CO)[C@@H](O)[C@@H]1O (stereo not given in full)
- Ka (Triticum aestivum [1]): 1.1 10^3/M
